Settings: sheep, intranasal 2.0 IU/kg insulin, LPG versus LPC
Method: The sheep were divided into 4 groups of 5 animals each. Group 1 received 2.0 IU/kg insulin together with 2.0 mg/kg SMS 45/25 microspheres (Pharmacia) and 0.2 mg/kg LPC (Formulation 1) intranasally in the form of a lyophilised powder. A sheep of 50 kg thus received 100 IU of insulin together with 100 mg SMS 45/25 microspheres and 10.0 mg LPC. Group 2 received 2.0 IU/kg insulin together with 2.0 mg/kg SMS 45/25 microspheres and 0.2 mg/kg LPG Formulation 2) intranasally in the form of a lyophilised powder. A sheep of 50 kg thus received 100 IU of insulin together with 100 mg SMS 45/25 microspheres and 10.0 mg LPG. Group 3 received 2.0 IU/kg insulin together with 0.02 mg/kg LPC (Formulation 3) intranasally in the form of a solution at 0.01 ml/kg. A sheep of 50 kg thus received 100 IU of insulin together with 1.0 mg LPC in a volume of 0.5 ml. Group 4 received 2.0 IU/kg insulin together with 0.02 mg/kg LPG (Formulation 4) intranasally in the form of a solution at 0.01 ml/kg. A sheep of 50 kg thus received 100 IU of insulin together with 1.0 mg LPG in a volume of 0.5 ml. […]
Sedation/Blood Sampling: For the intranasal studies, the sheep were sedated by use of an i.v. dose of ketamine hydrochloride (Ketalar (Regd. T.M.), 100 mg/ml injection) at 2.25 mg/kg. […] Each blood sample was divided into two parts and analysed as in Example 1.

For L-α-lysophosphatidyl-DL-glycerol [LPG], the Plasma glucose levels was “lower (i.e. better) with LPG”.

Source: US5725871A, “Drug delivery compositions comprising lysophosphoglycerolipid” (Danbiosyst UK Limited, priority 1989, dated 1998)
